# Results: patent US10584122B2, “Solid forms of a compound modulating kinases” (Plexxikon Inc., priority 2015, dated 2020)
# Where two headings read alike, the source gives them in different places.
# Assays:
# [1] = Physical stability, stress experiments (temperature/RH) with XRPD; format: physicochemical; conditions: for Physical stability (overall finding): at the conditions investigated, HCl salt
# physchem = conditions: water, thermodynamic from solid
# [2] = Dynamic vapor sorption/desorption (DVS); format: physicochemical; conditions: for Solid form after DVS, by XRPD: after sorption/desorption; for DVS weight loss upon equilibration: equilibration at 5% RH
# Description: Moisture sorption/desorption data were collected on a VTI SGA-100 Vapor Sorption Analyzer under a nitrogen purge. […] Data were not corrected for the initial moisture content of the samples. Sodium chloride and polyvinypyrrolidine were used as calibration standards.
# [3] = Slurry experiment, form conversion by XRPD; format: physicochemical; conditions: slurried in ethanol for 21 days
# Method: Solutions were prepared by adding enough solids to a given solvent so that excess solids were present. The mixture was then agitated in a sealed vial at either ambient or a set temperature.
smiles,measurement,setting,value
"Cl.FC(F)(F)c1ccc(CNc2ccc(Cc3c[nH]c4ncc(Cl)cc34)cn2)cn1 [Compound I Form A, [5-(5-chloro-1H-pyrrolo[2,3-b]pyridin-3-ylmethyl)-pyridin-2-yl]-(6-trifluoromethyl-pyridin-3-ylmethyl)-amine HCl salt]",XRPD Result (solid form after stress),[1]; 40° C./75% RH/14 d,A + C
same,XRPD Result (solid form after stress),[1]; 80° C./7 d (<<100 mg),converted to Form C
same,XRPD Result (solid form after stress),[1]; RT/85% RH/14 d,A + minor C
same,Physical stability (overall finding),[1]; listed as Form A,physically metastable
same,Form conversion on exposure to elevated humidity,[1]; elevated humidity,partial conversion to Form C
same,solubility,physchem,< 2000 µg/mL
same,"DVS additional weight gain, sorption step",[2]; above 75% RH,1.7%
same,"Solid form after DVS, by XRPD","[2]; listed as Form A, HCl salt",Form A
same,"DVS weight gain, sorption step",[2]; from 5% to 75% RH,0.6%
same,Hygroscopicity (DVS isotherm),"[2]; listed as Form A, HCl salt",hygroscopic
same,Form conversion on slurry,[3],complete conversion to Form C
"Cl.FC(F)(F)c1ccc(CNc2ccc(Cc3c[nH]c4ncc(Cl)cc34)cn2)cn1 [Compound I Form B, [5-(5-chloro-1H-pyrrolo[2,3-b]pyridin-3-ylmethyl)-pyridin-2-yl]-(6-trifluoromethyl-pyridin-3-ylmethyl)-amine HCl salt]",Form conversion on heating,[1]; about 150° C. for about 5 minutes,Desolvation/conversion to Form C
"Cl.FC(F)(F)c1ccc(CNc2ccc(Cc3c[nH]c4ncc(Cl)cc34)cn2)cn1 [Compound I Form C, [5-(5-chloro-1H-pyrrolo[2,3-b]pyridin-3-ylmethyl)-pyridin-2-yl]-(6-trifluoromethyl-pyridin-3-ylmethyl)-amine HCl salt]",Physical stability (overall finding),[1]; listed as Form C,more physically stable than Form A
same,"Solid form after DVS, by XRPD","[2]; listed as Form C, HCl salt",remained unchanged
same,"DVS weight gain, sorption step",[2]; from 5% to 95% RH,0.96%
same,Hygroscopicity (DVS isotherm),"[2]; listed as Form C, HCl salt",less hygroscopic than Form A
"CO.Cl.FC(F)(F)c1ccc(CNc2ccc(Cc3c[nH]c4ncc(Cl)cc34)cn2)cn1 [Compound I Form D, [5-(5-chloro-1H-pyrrolo[2,3-b]pyridin-3-ylmethyl)-pyridin-2-yl]-(6-trifluoromethyl-pyridin-3-ylmethyl)-amine HCl salt methanol solvate]",Form conversion on heating,[1]; 80° C. for 15 minutes,desolvated to Form A
same,Form conversion on heating,[1]; continued exposure to 80° C. for 2 days,converted to Form C
same,"DVS weight loss, desorption phase",[2]; desorption phase,0.9%
same,DVS weight loss upon equilibration,[2],approximately 5.3%
same,"DVS weight gain, sorption phase",[2]; sorption phase,0.9%
"FC(F)(F)c1ccc(CNc2ccc(Cc3c[nH]c4ncc(Cl)cc34)cn2)cn1 [Compound II, [5-(5-chloro-1H-pyrrolo[2,3-b]pyridin-3-ylmethyl)-pyridin-2-yl]-(6-trifluoromethyl-pyridin-3-ylmethyl)-amine]",Hygroscopicity (DVS isotherm),[2],hygroscopic
same,DVS weight loss upon equilibration,[2],0.3-0.4%
same,DVS weight gained,[2]; from 45% to 95% RH,~21.6%
